This is an account of results in article PMC11942360, “Intratracheal Delivery of a Phospholamban Decoy Peptide Attenuates Cardiac Damage Following Myocardial Infarction” (International Journal of Molecular Sciences, 2025).

Data set [1] has as its system SERCA2a, α-SMA, phospho-PLN (S16), PP1cα, PPP1R3A in heart. Put plainly: Myocardial infarction model: western blotting of heart lysates. Format: in vivo, mice. The conditions noted are these: 200 nmoles IT 3 h prior to MI, 24 h post-MI, western blot, n = 3 per group. An excerpt:
Figure 4 Delivery of dNP2-SE via IT injection prevents molecular abnormalities upon MI. (A) Protein lysates obtained from the hearts shown in Figure 2 and Figure 3 were subjected to western blotting. Antibodies against SERCA2a, α-SMA, phospho-PLN, PLN, PP1cα, and PPP1R3A were used. β-actin was used as a loading control. (B) The ratio of phosphorylated PLN over PLN is shown. […] Bar represents the mean ± SEM.
For orientation: A western blot detects proteins with antibodies after separation by electrophoresis.

The test system of data set [2] is C57/Bl6 mice, myocardial infarction. Put plainly: Myocardial infarction model: hemodynamic analysis (PV loops). The note with it: 200 nmoles IT 3 h prior to MI, 24 h post-MI, n = 5~8 per group. Format: in vivo. The method, then:
Figure 3 Delivery of dNP2-SE via IT injection preserves cardiac contractility upon MI. Hemodynamic analyses were performed 24 h post-MI to measure cardiac contractility. (A) Representative PV loops are shown. (B) End-systolic pressure–volume relationship (ESPVR), dp/dt max (mmHg), and dp/dt min (mmHg) are shown. […] Bar represents the mean ± SEM.
(§1) The left side of the chest was shaved, and an intubation tube was inserted into the trachea. An incision was made in the 4th intercostal space, and the muscles were separated with scissors. The pericardium was gently removed. MI was induced by ligation of the left anterior descending (LAD) artery using a 7–0 black silk suture. The lower region of the artery turned pale immediately after ligation. The chest was sutured with 4–0 black silk. The same surgical procedure, without LAD ligation, was performed for the sham operation.
An incision was made in the abdominal wall to expose the abdominal cavity. The diaphragm was carefully separated from the ribs to avoid bleeding during the incision procedures. The xiphoid process was lifted, and the diaphragm was pulled down and fixed to secure the site. The pericardium was then removed. A small puncture was made in the left ventricle using an insulin syringe, and a probe was inserted through the puncture (AD instruments, Dunedin, New Zealand). Data analysis was performed using LabChart 8 (AD instruments, New Zealand).

The test system is the same in data set [3]. Put plainly: Myocardial infarction model: TUNEL staining of heart sections. Format: in vivo. The note with it: 200 nmoles IT 3 h prior to MI; 24 h post-MI; LV free wall; n = 3~4 per group. How it is done: Figure 2 Delivery of dNP2-SE via IT injection exerts cardio-protective effects upon MI. (A) Experimental scheme. A total of 200 nmol dNP2-SE or PBS was delivered via IT injection to adult (9-week-old) C57/Bl6 mice. MI was induced by LAD ligation 3 h post-injection. Hearts were harvested and analyzed 24 h post-MI. (B) Hearts were sectioned and stained with hematoxylin and eosin (H&E) or Picro Sirius Red. Representative images are shown. The LV chamber area was traced (shown in blue lines) and quantitated. The thickness of the LV free wall was also measured (shown in straight black lines). (C,D) LV chamber area and LV free wall thickness are presented as a graph. n = 6~7 per group; one-way ANOVA; *** p < 0.001. Bar represents the mean ±SEM. […] Bar represents the mean ±SEM. (F) TUNEL staining of the heart sections was performed using the DeadEnd Fluorometric TUNEL System. Apoptotic DNA fragmentation was labeled with fluorescein-12-dUTP (green). Nuclei were stained with Hoechst 33342 (blue). Representative images are shown. […] Bar represents the mean ± SEM. […]
The TUNEL assay was performed following the manufacturer’s instructions (DeadEnd Fluorometric TUNEL System, Promega, […], USA). […] Apoptotic signals and nuclear signals in the LV region were counted using cellSens TruAI 4.3 software (OLYMPUS, Tokyo, Japan), and the percentage of TUNEL-positive cells was calculated.

The test system is the same in data set [4]. Put plainly: Myocardial infarction (LAD ligation) model: histology and heart morphology. Type of data set: in vivo. The note with it: 200 nmoles IT 3 h prior to MI, vs PBS-injected. How it is done:
Figure 2 Delivery of dNP2-SE via IT injection exerts cardio-protective effects upon MI. (A) Experimental scheme. A total of 200 nmol dNP2-SE or PBS was delivered via IT injection to adult (9-week-old) C57/Bl6 mice. MI was induced by LAD ligation 3 h post-injection. Hearts were harvested and analyzed 24 h post-MI. (B) Hearts were sectioned and stained with hematoxylin and eosin (H&E) or Picro Sirius Red. Representative images are shown. The LV chamber area was traced (shown in blue lines) and quantitated. The thickness of the LV free wall was also measured (shown in straight black lines). (C,D) LV chamber area and LV free wall thickness are presented as a graph. n = 6~7 per group; one-way ANOVA; *** p < 0.001. Bar represents the mean ±SEM. […] Bar represents the mean ±SEM. (F) TUNEL staining of the heart sections was performed using the DeadEnd Fluorometric TUNEL System. Apoptotic DNA fragmentation was labeled with fluorescein-12-dUTP (green). Nuclei were stained with Hoechst 33342 (blue). Representative images are shown. […] Bar represents the mean ± SEM.
as §1
Harvested heart tissues were fixed in 4% PFA for 24 h at 4 °C and then washed with tap water. After discarding the tap water, the tissues were sequentially incubated in 70%, 80%, 95%, and 100% ethanol for 1 h each to dehydrate. Following the ethanol incubations, the tissues were incubated in xylene for 1 h and 20 min and then embedded in paraffin at 60 °C for 4 h. Paraffin-embedded tissues were sliced into 8 µm sections. After rehydration, the sections were used for histology as follows:
H&E staining: The sections were incubated in hematoxylin (26041-06, Electron Microscopy Science, Hatfield, PA, USA) for 30 s to stain the nuclei, followed by a 10 min wash in running tap water to remove excess stain. Subsequently, the sections were incubated in eosin (EOYA-05-OT-1L, Biognost, Zagreb, Croatia) for 2 min to stain the cytoplasm.
Picro Sirius staining: The sections were incubated for 60 min in Picro Sirius Red solution (ab150681, Abcam, Waltham, MA, USA), rinsed twice with 0.5% acetic acid, and then rinsed with absolute alcohol. H&E and Picro Sirius-stained slides were observed using a slide scanner (Aperio CS2, Leica, Germany).

Data set [5] addresses T1, PP1cα-PPP1R3A-PLN complex (Mus musculus, UniProt P62137).
T1 construct: from tissue; host or cells: mouse heart (C57BL/6, after MI, PBS- or dNP2-SE-injected)
Put plainly: Immunoprecipitation of heart lysates with anti-PP1cα antibodies. The note with it: heart lysates of MI mice given 200 nmoles IT, IP with anti-PP1cα. From the text:
(§2) Figure 5 Inhibitory mechanism of dNP2-SE on the PP1cα-PPP1R3A-PLN complex. (A) Protein lysates shown in Figure 4 were subjected to immunoprecipitation with anti-PP1cα antibodies and blotted with antibodies against PLN, PPP1R3A, and PP1cα (upper three rows). Inputs were also blotted with antibodies against PLN, PPP1R3A, and PP1cα (lower three rows). (B) Biotin-dNP2-SE was delivered to the normal heart via IT injection. Heart lysates were obtained, precipitated with streptavidin, and blotted with PP1cα, PPP1R3A, and PLN. Inputs were also blotted.
Immunoprecipitation was performed by adding 1 µg of the corresponding antibody to 1 mg of lysate. The mixture was gently inverted on a rotator overnight at 4 °C. After the primary antibody incubation, 30 µL of protein A-conjugated magnetic beads (88845, Thermo Fisher, Waltham, MA, USA) were added and incubated for 1 h to bind with the antibody. To isolate the protein–antibody–bead complex from the lysate, the mixture was centrifuged at 3000 rpm for 3 min at 4 °C and washed 4 times with lysis buffer. As a control for the precipitates, 2% of the initial protein amount used for pulldown was prepared as input. The collected complexes and inputs were used for western blots.

The target in the next data set is T2, PP1cα (Mus musculus, UniProt P62137).
T2 construct: from tissue; host or cells: normal mouse heart after IT injection of biotin-dNP2-SE
T2 sequence (P62137 whole entry): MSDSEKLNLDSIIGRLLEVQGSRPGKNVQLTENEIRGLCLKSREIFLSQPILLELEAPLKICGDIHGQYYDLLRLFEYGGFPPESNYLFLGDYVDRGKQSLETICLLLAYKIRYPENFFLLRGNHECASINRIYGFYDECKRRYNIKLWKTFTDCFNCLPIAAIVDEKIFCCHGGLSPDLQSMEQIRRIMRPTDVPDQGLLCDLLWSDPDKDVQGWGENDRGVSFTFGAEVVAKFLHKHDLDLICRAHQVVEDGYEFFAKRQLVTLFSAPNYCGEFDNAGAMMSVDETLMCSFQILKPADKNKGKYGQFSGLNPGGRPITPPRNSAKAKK
Put plainly: Streptavidin precipitation of biotin-dNP2-SE from heart lysates, blot for PP1cα. Type of data set: binding, mice. The conditions noted are these: biotin-dNP2-SE delivered to the normal heart via IT injection.
Excerpt: as §2

For the next data set, the target named is T3, PPP1R3A (Mus musculus, UniProt Q99MR9).
T3 construct: from tissue; host or cells: normal mouse heart after IT injection of biotin-dNP2-SE
T3 sequence (Q99MR9 1-1089): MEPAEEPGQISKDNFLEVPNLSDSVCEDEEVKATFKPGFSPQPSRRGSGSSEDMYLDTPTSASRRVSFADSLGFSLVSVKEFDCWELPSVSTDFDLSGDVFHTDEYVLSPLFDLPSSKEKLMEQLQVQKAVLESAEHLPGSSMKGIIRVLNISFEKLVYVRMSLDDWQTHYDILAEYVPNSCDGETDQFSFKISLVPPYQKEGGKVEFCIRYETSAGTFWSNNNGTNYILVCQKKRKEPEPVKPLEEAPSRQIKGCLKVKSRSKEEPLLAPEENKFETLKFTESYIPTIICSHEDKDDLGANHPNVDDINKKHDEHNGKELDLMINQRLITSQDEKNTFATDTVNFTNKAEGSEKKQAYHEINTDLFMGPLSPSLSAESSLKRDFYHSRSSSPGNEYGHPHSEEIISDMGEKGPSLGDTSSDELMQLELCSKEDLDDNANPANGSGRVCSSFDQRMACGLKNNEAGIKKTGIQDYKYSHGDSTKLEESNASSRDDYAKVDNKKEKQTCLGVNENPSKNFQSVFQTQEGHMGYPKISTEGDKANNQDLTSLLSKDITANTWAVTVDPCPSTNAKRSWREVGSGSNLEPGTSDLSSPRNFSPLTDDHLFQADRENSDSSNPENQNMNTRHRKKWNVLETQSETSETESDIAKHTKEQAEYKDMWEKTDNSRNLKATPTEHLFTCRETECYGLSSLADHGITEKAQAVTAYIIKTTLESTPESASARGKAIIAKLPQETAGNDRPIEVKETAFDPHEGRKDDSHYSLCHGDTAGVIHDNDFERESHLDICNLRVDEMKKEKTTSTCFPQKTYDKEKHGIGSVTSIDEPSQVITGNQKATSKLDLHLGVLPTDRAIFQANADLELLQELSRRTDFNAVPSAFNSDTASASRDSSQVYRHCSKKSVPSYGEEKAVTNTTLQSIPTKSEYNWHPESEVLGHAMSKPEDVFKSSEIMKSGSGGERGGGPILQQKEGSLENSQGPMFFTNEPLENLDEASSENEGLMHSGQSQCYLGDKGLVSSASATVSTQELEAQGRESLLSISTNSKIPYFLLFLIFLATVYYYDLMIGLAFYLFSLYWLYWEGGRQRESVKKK
Put plainly: Streptavidin precipitation of biotin-dNP2-SE from heart lysates, blot for PPP1R3A. Type of data set: binding, mice. The conditions noted are these: biotin-dNP2-SE delivered to the normal heart via IT injection.
Excerpt: as §2

For data set [6] the following is noted: cited from earlier work. An excerpt: In this study, we aimed to evaluate the feasibility of delivering a naked peptide fused with a cell-penetrating peptide (CPP) to the heart via the lung-to-heart route without encapsulation in NPs. CPPs, which are the peptide sequences enriched in arginine and lysine residues, facilitate the translocation of hydrophilic macromolecules such as proteins and peptides across cellular membranes. The specific CPP used in this study is a tandem repeat of NP2 (dNP2), a sequence derived from the human novel LZAP-binding protein (NLBP). Compared to TAT, the most widely used CPP originated fro ...

Setting [7] is: 24 h post-MI, n = 6~7 per group.

T1 sequence (P62137 whole entry, one chain of several): as the sequence (P62137 whole entry) above

For the substance “Ac-KIKKVKKKGRKGSKIKKVKKKGRKGRAETIEMPQ-NH2 [dNP2-SE]”, the “Phosphorylation of PLN at S16 (p-PLN) in heart under MI” value in data set [1] (p-PLN/PLN) is “fully preserved”. For the same substance, in data set [1], the “Expression level of PP1cα in heart” value is “remained unchanged”, the “MI-induced increase in PPP1R3A expression in heart” value was “prevented”, the “MI-induced increase of α-smooth muscle actin (α-SMA) in heart” value is listed as “attenuated” and the “MI-induced reduction of SERCA2a expression in heart” value is given as “attenuated”. For the same substance, the “PV loop pattern under MI” value in data set [2] was “indistinguishable from that of sham-operated hearts”. In data set [2] (vs PBS-injected), the “Ejection fraction (EF) under MI” value is “significantly ameliorated”, the “End-systolic pressure–volume ratio (ESPVR) under MI” value is listed as “significantly normalized”, the “LV end-diastolic volume (Vmax) under MI” value is on record as “significantly ameliorated” and the “LV end-systolic volume (Vmin) under MI” value is given as “significantly ameliorated”. For the same substance, in data set [2] (vs PBS-injected), the “dP/dt max under MI” value is given as “significantly normalized” and the “dP/dt min under MI” value is recorded as “significantly normalized”. Moreover, the “Increase in apoptotic cell populations (TUNEL-positive cells) under MI” value in data set [3] is given as “effectively prevented”. Further, in data set [4] (setting [7]), the “Heart weight-to-body weight ratio under MI” value is “normalized”, the “LV chamber area under MI” value is “remained normal” and the “LV free wall thickness under MI” value was “significantly preserved”. In data set [4] (hearts 24 h post-MI), the “Collagen deposition (Picro Sirius staining) under MI” value was “markedly reduced”. Also, the “Interactions between PP1cα and PPP1R3A (co-immunoprecipitation)” value in data set [5] is listed as “not altered”. The “Physical interactions between PP1cα and PLN (co-immunoprecipitation)” value in data set [5] (vs PBS-injected) is reported as “completely abolished”. Also, the “Binding to PP1cα (streptavidin precipitation, western blot)” value on PP1cα is on record as “strongly binds”. Also, on PPP1R3A, the “Interaction with PPP1R3A (streptavidin precipitation, western blot)” value is listed as “only weakly interacts”.
In the case of KIKKVKKKGRKGSKIKKVKKKGRKG [dNP2], in data set [6], the “Toxicity compared to TAT” value is “significantly lower toxicity than TAT”.
